We go through one molecule from patent US20230364029A1, “POLYMORPHIC FORMS OF (R)-2-HYDROXY-2-METHYL-4-(2,4,5-TRIMETHYL-3,6-DIOXOCYCLOHEXA-1,4-DIENYL)BUTANAMIDE” (PTC THERAPEUTICS, INC., priority 2014, published 2023).

In data set [1] the test system is cells from patients having Parkinson’s Disease (Coriell AG20439). Put plainly: Fibroblast screen similar to Example 12, Parkinson’s Disease cells. The following applies: Homo sapiens. In kind it is cell-based.
In data set [2] the test system is cells from patients having Amyotrophic Lateral Sclerosis (ALS) (Coriell ND29523). The experiment in a line: Fibroblast screen similar to Example 12, ALS cells. In kind it is cell-based. To be noted: Homo sapiens.
The test system of a further data set is auditory HEI-OC 1 cells. The experiment in a line: Protection from cisplatin-induced ototoxicity (caspase3/7 activity). The data set is classed as cell-based, mice. To be noted: overnight pretreatment, 24 hours of 50 uM cisplatin. As for the experimental part: The conditionally immortalized auditory HEI-OC 1 cells from long-term cultures of transgenic mice Immortomouse™ cochleas as described in Kalinec, G. et al., Audiol. Nerootol. 2003; 8, 177-189/. were maintained in high glucose Dulbecco’s modified Eagle medium (DMEM) containing 10% FBS under permissive conditions, 33° C., 10%CO2. Cells were pretreated overnight with (R)-2-hydroxy-2-methyl-4-(2,4,5-trimethyl-3,6-dioxocyclohexa-1,4-dienyl)butanamide, and apoptosis was detected by caspase3/7 activity after 24 hours of 50 uM cisplatin incubation. Cells incubated in diluent alone were the controls.

Data set [3] concerns cells from patients having Leber’s Hereditary Optic Neuropathy (LHON) (Coriell GM03858). The experiment in a line: Fibroblast screen similar to Example 12, LHON cells. In kind it is cell-based. To be noted: Homo sapiens.
Data set [4] relates to cells from patients having Leigh Syndrome (Coriell GMOI503A). Put plainly: Fibroblast screen similar to Example 12, Leigh Syndrome cells. In kind it is cell-based. The following applies: Homo sapiens.
The nature of data set [5]: Competitive slurries of Patterns A-F. In kind it is physicochemical. To be noted: competitive slurry of Patterns A-F in 0.5% MC/water, ambient. The protocol: Competitive slurry experiments of Patterns A, B, C, D, E and F were initiated in IPA, IPA/2% water and 0.5% Methyl Cellulose in water at ambient conditions as summarized in Table 16. Approximately 100 mg of the starting material, Pattern A, was added to a glass vial fitted with a magnetic stir bar. Solvent was added to the vial and allowed to slurry with Pattern A for 15 minutes before approximately 10-20 mg of each relative Pattern (B, C, D, E and F) was added to each vial.

Data set [6] concerns cells from patients having Rett’s Disorder (Coriell GM-17567). Put plainly: Fibroblast screen similar to Example 12, Rett’s Disorder cells. In kind it is cell-based. To be noted: Homo sapiens.
For data set [7], the system named is cells from patients having Huntington’s Disease (Coriell GM 04281). Put plainly: Fibroblast screen similar to Example 12, Huntington’s Disease cells. The following applies: Homo sapiens. In kind it is cell-based.
Data set [8] deals with Human dermal fibroblasts from Friedreich’s Ataxia patients (GM04078). Put plainly: Rescue of BSO-stressed FRDA fibroblasts. The data set is classed as cell-based. To be noted: Friedrich’s Ataxia, Calcein AM viability. As for the experimental part: An initial screen was performed to identify compounds effective for the amelioration of redox disorders. Test samples were tested for their ability to rescue FRDA fibroblasts stressed by addition of L-buthionine-(S,R)-sulfoximine (BSO), as described in Jauslin et al., Hum. Mol. Genet. 11(24):3055 (2002), Jauslin et al., FASEB J. 17:1972-4 (2003), and International Patent Application WO 2004/003565.
MEM (a medium enriched in amino acids and vitamins, catalog no. 1-31F24-I) and Medium 199 (M199, catalog no. 1-21F22-I) with Earle’s Balanced Salts, without phenol red, were purchased from Bioconcept. Fetal Calf Serum was obtained from PAA Laboratories. Basic fibroblast growth factor and epidermal growth factor were purchased from PeproTech. Penicillin-streptomycin-glutamine mix, L-buthionine (S,R)-sulfoximine, and insulin from bovine pancreas were purchased from Sigma. Calcein AM was purchased from Anaspec. […]
100 microliters of PBS +Ca +Mg containing 1.2 micromolar Calcein AM were then added to each well. […] After that time fluorescence (excitation/emission wavelengths of 485 nm and 525 nm, respectively) was read on a Gemini fluorescence reader. […]

Data set [9] concerns cells from patients having a CoQ2 mutation (CoQ10 Deficiency). The experiment in a line: Fibroblast screen similar to Example 12, CoQ10 Deficiency cells. The data set is classed as cell-based. To be noted: Homo sapiens.

Consider `CC1=C(C)C(=O)C(CC[C@@](C)(O)C(N)=O)=C(C)C1=O` [(R)-2-hydroxy-2-methyl-4-(2,4,5-trimethyl-3,6-dioxocyclohexa-1,4-dienyl)butanamide], for which the EC50 is 0.1 to 0.5 µM in data set [1]; < 0.1 µM in [2]; < 0.1 µM in data set [3]; < 0.1 µM in data set [4]; < 0.1 µM in data set [6]; < 0.1 µM in data set [7]. The EC50 in data set [8] and in [9] was < 0.1 µM each time. Moreover, in the data set with auditory HEI-OC 1 cells, the EC25 entry was “+++ (+++ indicates less than 100 micromolar)”. Besides, the “XRPD 24 hrs” value in data set [5] is “A/C”.

Broadly, the EC50 is the concentration at which the effect is half-maximal.
